# Columns and labels:
# [1] = system: galactosamine-induced liver intoxication; assay: Protection against hepatotoxic effects induced by galactosamine in the rat; type: in vivo
# Experimental: In these tests the method adopted was that described by Reuter (Reuter W., Trends in the Therapy of Liver Diseases Proceeding, Ed. A. Bertelli, pp. 121, 1974, Karger Basel 1975).
# Rats weighing approximately 250 g received daily oral administrations for two days consecutively of 200 mg/kg of isovaleryl L-carnitine or 200 mg/kg of propionyl L-carnitine or 100 mg/kg of silymarin or a combination of these compounds at the same doses. After 24 hours, the same rats were administered 400 mg/kg i.p. of galactosamine. After a further 24 hours, blood samples taken from the animals were used to determine both glutamic-oxalacetic […] (GOT) and the bilirubin present in plasma, according to the method described by Keppler (Keppler D., Exp. Mol. Pathol, 9, 279, 1968).
# rat liver cells = assay: Protection against CCl4 toxicity on isolated liver cell cultures; conditions: CCl4 100 mg L^−1; for Concentration of AlaAT in supernatant of liver cells exposed to CCl4 / Concentration of AspAT in supernatant of liver cells exposed to CCl4: I 100 mg L^−1, P 100 mg L^−1, S 50 mg L^−1; for Inhibition of toxic and lipoperoxidative effects caused by CCl4 on liver cell cultures (in words): summary of Tables 1 and 2
# [2] = rat plasma 24 hours after galactosamine 400 mg/kg i.p., oral pretreatment two days, alkanoyl L-carnitine 200 mg/kg, silymarin 100 mg/kg
SMILES,Protective effect against galactosamine-induced liver intoxication (in words) ([1]; rat),"Bilirubin [1, 2]","GOT [1, 2]","GluDH ([1]; rat, 24 hours after galactosamine 400 mg/kg i.p., oral pretreatment two days, alkanoyl L-carnitine 200 mg/kg, silymarin 100 mg/kg)",Concentration of AlaAT in supernatant of liver cells exposed to CCl4 (rat liver cells; 4 hours) [nmol/min/L],Concentration of AspAT in supernatant of liver cells exposed to CCl4 (rat liver cells; 4 hours) [nmol/min/L],Concentration of AlaAT in supernatant of liver cells exposed to CCl4 (rat liver cells; 8 hours) [nmol/min/L],Concentration of AspAT in supernatant of liver cells exposed to CCl4 (rat liver cells; 8 hours) [nmol/min/L],Concentration of AlaAT in supernatant of liver cells exposed to CCl4 (rat liver cells; 16 hours) [nmol/min/L],Concentration of AspAT in supernatant of liver cells exposed to CCl4 (rat liver cells; 16 hours) [nmol/min/L],Inhibition of toxic and lipoperoxidative effects caused by CCl4 on liver cell cultures (in words) (rat liver cells),"Enzyme activity (GOT) and bilirubin after galactosamine (in words) ([1]; rat, oral pretreatment, galactosamine 400 mg/kg i.p.)"
"CC(C)CC(=O)O[C@H](CC(=O)[O-])C[N+](C)(C)C [Isovaleryl L-carnitine, isovaleryl L-carnitine]",protective activity,0.15 ± 0.04,215 ± 30.5,64 ± 6.8,19.4 ± 2.4,6.9 ± 1.1,16.7 ± 3.1,6.2 ± 0.9,15.6 ± 2.7,5.5 ± 1.2,partly inhibiting,–
"CCC(=O)O[C@H](CC(=O)[O-])C[N+](C)(C)C [Propionyl L-carnitine, propionyl L-carnitine]",–,–,–,–,22.3 ± 4.1,7.5 ± 0.9,18.4 ± 2.3,5.5 ± 1.2,16.6 ± 1.9,5.2 ± 1.4,partly inhibiting,reduced

# — US6552070B2, “Health food useful for preventing liver and biliary dysfunctions containing an alkanoyl L-carnitine and Silybum marianum extract” (Sigma-Tau HealthScience S.p.A., priority 2000, dated 2003)
